# Measurements reported in PubChem BioAssay AID687005 (Broad Institute, 2013).
# Values joined by “and” are separate entries in the source; they are usually repeats but may differ in a detail not shown here. Equal values may be shown once. Records with an inconclusive call do not appear. Active and inactive are the calls of the source.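 The calls were made as follows: active = Compounds that reduce signal, with fitted half-maximal dose at or under twice the top valid tested dose; inconclusive = Poor fit, or flat curve losing 30 to 70% of signal; inactive = Potency past limit, flat within 30%, or opposite direction.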
# Test system: not listed separately
# Test: HEK293T cell cytotoxicity, dose response, cytotoxicity control, ATP luminescence, cherry-pick samples (AID 687005)
# Details: HEK293T viability, ATP luminescence (CellTiter-Glo), 48 h; at 21 µM (top of the series)
row,SMILES,"activity change, negative = cytotoxicity"
1,C[C@@H]1CN([C@H](C)CO)C(=O)Cc2cc(NC(=O)CCCCCC(=O)Nc3ccccc3N)ccc2O[C@H]1CN(C)Cc1ccc2c(c1)OCO2,-2.18% (inactive)

# Same assay, conditions: HEK293T viability, ATP luminescence (CellTiter-Glo), 48 h; at 23.5 µM (top of the series)
row,SMILES,"activity change, negative = cytotoxicity"
1,C[C@@H]1CCCCO[C@@H](CN(C)CC2CCCCC2)[C@@H](C)CN([C@@H](C)CO)C(=O)c2cc(NS(=O)(=O)c3ccccc3)ccc2O1,-40.3% (inactive)
2,C[C@@H]1CCCCO[C@@H](CN(C)C(=O)Nc2ccc3c(c2)OCO3)[C@@H](C)CN([C@H](C)CO)C(=O)c2cc(NC(=O)Nc3cccc4ccccc34)ccc2O1,-9.79% (inactive)
3,CC(C)NC(=O)Nc1ccc2c(c1)CC(=O)N([C@H](C)CO)C[C@H](C)[C@H](CN(C)S(=O)(=O)c1ccc(Cl)cc1)O2,39.4% (inactive)
4,C[C@@H]1CN([C@H](C)CO)C(=O)Cc2cc(NC(=O)Nc3cccc4ccccc34)ccc2O[C@@H]1CN(C)Cc1ccc(C(=O)O)cc1,-26.3% (inactive)

# Same assay, conditions: HEK293T viability, ATP luminescence (CellTiter-Glo), 48 h; at 26 µM (top of the series)
row,SMILES,"activity change, negative = cytotoxicity"
1,C[C@@H]1CN([C@@H](C)CO)C(=O)c2cccc(NC(=O)c3ccncc3)c2O[C@H]1CN(C)C(=O)Nc1ccccc1,6.14% (inactive)
2,Cc1ccccc1OCC(=O)NC(C)c1ccccc1 (centres undefined),-29.9% (inactive)
3,CCN(Cc1ccccc1)C(=O)COc1ccccc1,-2.56% (inactive)
4,CCC(C)(C(=O)Nc1ccccc1C)N(C(=O)CNC(C)=O)c1ccc(C)cc1 (centres undefined),-11.7% (inactive)
5,C[C@@H]1CN([C@@H](C)CO)C(=O)c2cc(NC(=O)C3CCCCC3)ccc2O[C@@H](C)CCCCO[C@@H]1CN(C)C(=O)NC1CCCCC1,8.91% (inactive)
6,CO[C@H]1CN(C)C(=O)c2ccc(NC(=O)NC(C)C)cc2OC[C@@H](C)NC[C@H]1C,-16.2% (inactive)
7,COc1ccc(NC(=O)N(C)C[C@H]2OCc3ccccc3-c3c(n(C)c4ccccc34)C(=O)N([C@H](C)CO)C[C@@H]2C)cc1,-4.07% (inactive)
8,COCCNC(=O)C[C@H]1CC[C@@H]2[C@H](COC[C@H](O)CN2S(=O)(=O)c2ccccc2C)O1,15.9% (inactive)
9,O=S1(=O)CCC(N=Cc2cc(Br)ccc2O)C1 (centres undefined),37.7% (inactive)
10,CC(=O)N1[C@@H]2CN(S(=O)(=O)c3ccccc3F)c3ccccc3[C@@H]2[C@@H]1CO,5.73% (inactive)
11,COc1ccc(CNC(=O)C[C@H]2CC[C@H]3[C@@H](COc4ccc(NC(=O)C5CC5)cc4C(=O)N3C)O2)cc1,26% (inactive)
12,C[C@H]1CN([C@@H](C)CO)C(=O)c2ccccc2-c2ccccc2CO[C@H]1CN(C)S(=O)(=O)c1cccc(C#N)c1,-8.25% (inactive)
13,Cc1noc(C)c1S(=O)(=O)Nc1ccc2c(c1)CC(=O)N([C@@H](C)CO)C[C@H](C)[C@@H](CN(C)S(=O)(=O)c1cn(C)cn1)O2,50.4% (inactive)
14,Cc1cc(C)c2nc(N3CCN(C(=O)c4cccs4)CC3)sc2c1,-19.8% (inactive)
15,C[C@H]1CN([C@@H](C)CO)C(=O)Cc2cc(NC(=O)CCCCCC(=O)Nc3ccccc3N)ccc2O[C@H]1CN(C)C(=O)Nc1ccccc1,-5.33% (inactive)
16,CC(C)NC(=O)Nc1ccc2c(c1)C(=O)N([C@H](C)CO)C[C@@H](C)[C@H](CN(C)C(=O)Nc1ccccc1)OCCCC[C@@H](C)O2,37.7% (inactive)
17,Cc1ccc(C2CC(c3cccs3)=NN2C(=O)c2ccc(Br)o2)cc1 (centres undefined),39% (inactive)
18,COc1ccc(C2CC(c3cccs3)=NN2C(=O)c2ccc(Br)o2)cc1 (centres undefined),16.8% (inactive)
19,CC(C)c1ccc(S(=O)(=O)N2CCN(CC(=O)Nc3ccc4c(c3)OCO4)CC2)cc1,-0.379% (inactive)
20,CCC(=O)Nc1ccc2c(c1)C(=O)N(C)C[C@H](OC)[C@@H](C)CN[C@H](C)CO2,29.1% (inactive)
21,CC(=O)NC[C@H]1[C@@H](c2ccc(C3=CCCC3)cc2)[C@@H](CO)N1C(=O)NC(C)C,-31.1% (inactive)
22,C[C@@H]1CN([C@@H](C)CO)C(=O)c2cccc(NC(=O)Nc3ccccc3)c2O[C@H]1CN(C)S(=O)(=O)c1cn(C)cn1,55.5% (inactive)
23,COc1ccc(N(CC(=O)NCCSCc2ccc(C)cc2)S(=O)(=O)c2ccccc2)cc1,-65.3% (inactive)
24,O=C(NC[C@H]1[C@@H](c2ccccc2)[C@@H](CO)N1C(=O)C1CCC1)NC1CCCC1,-38.9% (inactive)
25,CC(C)CC#Cc1cnc2c(c1)C(=O)N([C@H](C)CO)C[C@@H](C)[C@@H](CN(C)C(=O)c1ccc3c(c1)OCO3)O2,33.9% (inactive)

row,SMILES,"activity change, negative = cytotoxicity"
1,O=C(NCc1ccc(F)cc1)C1C2C=CC3(CN(Cc4cccnc4)C(=O)C13)O2 (centres undefined),9.79% (inactive)
2,C[C@@H]1CN([C@@H](C)CO)C(=O)c2cc(C3=CCCCC3)cnc2O[C@H]1CN(C)C(=O)Cc1cccnc1,-18.3% (inactive)
3,CN1C(=O)c2cc(NS(=O)(=O)c3cccc(F)c3)ccc2OC[C@H]2O[C@H](CC(=O)O)CC[C@H]21,29.9% (inactive)
4,O=C(CCN1CCCCC1)NCC[C@@H]1CC[C@H](NC(=O)c2ccc(F)cc2)[C@@H](CO)O1,9.77% (inactive)
5,O=C(C[C@H]1CC[C@H]2[C@@H](COC[C@H](O)CN2Cc2cc(F)cc(F)c2)O1)Nc1nccs1,0.29% (inactive)
6,C[C@@H]1CN([C@@H](C)CO)C(=O)c2cc(NC(=O)C3CC3)ccc2O[C@H]1CN(C)Cc1ccc2c(c1)OCO2,9.22% (inactive)
7,CC(C)NC(=O)N(C)C[C@H]1Oc2c(NC(=O)C3CCCCC3)cccc2C(=O)N([C@H](C)CO)C[C@H]1C,5.22% (inactive)
8,C[C@@H]1CN([C@@H](C)CO)C(=O)c2cc(NS(=O)(=O)c3cn(C)cn3)ccc2O[C@@H](C)CCCCO[C@H]1CN(C)C,-1.98% (inactive)
9,CCOC(=O)CSc1ncnc2c1cnn2-c1ccc(Cl)cc1,0.015% (inactive)
10,Cc1ccccc1S(=O)(=O)N[C@@H]1CC[C@H](CCNS(=O)(=O)c2cccc(F)c2)O[C@H]1CO,-17.7% (inactive)
11,CCC(=O)N1[C@@H]2c3cccc(=O)n3C[C@H]1[C@H](CO)[C@H]2C(=O)NCc1ccccc1,-16.7% (inactive)
12,CCC(=O)N[C@H]1C=C[C@@H](CC(=O)OC)O[C@@H]1CO,-29.7% (inactive)
13,CC=Cc1ccc2n(c1=O)C[C@@H]1[C@@H](CO)[C@H](C(=O)N3CCc4ccccc4C3)N(C(=O)C3CC3)[C@H]21 (mixture of isomers),-3.28% (inactive)
14,CC(=O)N1[C@@H]2c3ccc(-c4ccccc4)c(=O)n3C[C@H]1[C@H](CO)[C@H]2C(=O)Nc1ccccc1,17.2% (inactive)
15,O=C(Nc1ccccc1)N[C@@H]1CC[C@@H](CCNC(=O)c2ccccc2F)O[C@H]1CO,-29.3% (inactive)
16,C[C@@H]1CN([C@H](C)CO)C(=O)CCCn2cc(nn2)CO[C@@H]1CN(C)C(=O)CCCN(C)C,-5.89% (inactive)
17,CC(C)NC(=O)Nc1ccc2c(c1)C(=O)N([C@H](C)CO)C[C@H](C)[C@H](CN(C)Cc1ccncc1)OCCCC[C@H](C)O2,-57.3% (inactive)
18,COCC(=O)N1C[C@H](C)[C@H](OC)CN(C)C(=O)c2ccc(NC(=O)NC(C)C)cc2OC[C@@H]1C,37.2% (inactive)
19,O=C(c1cc(Br)ccc1Cl)N1CCN(c2ccccn2)CC1,-6.43% (inactive)
20,Cc1cc(C)c(NC(=O)C2CCC(=O)N2)c(C)c1 (centres undefined),12.8% (inactive)
21,CCCN(C)C[C@@H]1OCCCC[C@H](C)Oc2ccc(NS(=O)(=O)c3ccc(C)cc3)cc2C(=O)N([C@H](C)CO)C[C@@H]1C,37.3% (inactive)
22,C[C@H]1CN([C@@H](C)CO)C(=O)Cc2cc(NS(C)(=O)=O)ccc2O[C@@H]1CN(C)Cc1ccc(Cl)c(Cl)c1,11.7% (inactive)
23,CO[C@@H]1CN(C)C(=O)c2ccc(NC(=O)Nc3ccccc3)cc2OC[C@H](C)N(C(C)=O)C[C@H]1C,-7.15% (inactive)
24,C[C@H](CO)N1C[C@H](C)[C@H](CN(C)C(=O)Nc2cccc3ccccc23)Oc2ccc(NC(=O)Nc3ccccc3)cc2C1=O,2.5% (inactive)

# Same assay, conditions: HEK293T viability, ATP luminescence (CellTiter-Glo), 48 h; at 30 µM (top of the series)
row,SMILES,"activity change, negative = cytotoxicity"
1,COC(=O)C1=C(C)N(CC(C)C)C(=S)NC1c1cccc(F)c1 (centres undefined),-13.7% (inactive)

# Same assay, conditions: HEK293T viability, ATP luminescence (CellTiter-Glo), 48 h; at 38 µM (top of the series)
row,SMILES,"activity change, negative = cytotoxicity"
1,Cc1ccc(NC(=O)C2(C)CCN2C(=O)CC2CCCC2)cc1 (centres undefined),-16.5% (inactive)

# Same assay, conditions: HEK293T viability, ATP luminescence (CellTiter-Glo), 48 h; at 42 µM (top of the series)
row,SMILES,"activity change, negative = cytotoxicity"
1,CCCC(=O)N1CCCC1(C)C(=O)Nc1ccc(C)c(C)c1 (centres undefined),-11.7% (inactive)

# Test system: HEK293T viability, ATP luminescence (CellTiter-Glo), 48 h
# Test: as above
# Details: not given
row,SMILES,AC50
1,COc1ccc(C(=O)NC(=S)Nc2cccc(Cl)c2N2CCOCC2)cc1[N+](=O)[O-],25.1 µM and 6.55 µM
2,COC(=O)C1=C(C)N(Cc2ccccc2)C(=S)NC1c1cccc(OC)c1 (centres undefined),13.1 µM and 4.84 µM
